# Experimental data taken from PubChem BioAssay (NCI).
#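 Protocol summary: plate cells (96-well), add compound at 5 concentrations, incubate 48 h, interpolate endpoints linearly. At the GI50, growth is halved. TGI is the concentration that stops growth completely.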
# Columns and labels:
# Assay in all cases: NCI anticancer screen, dose series, 48 h
# IGROV1 ovarian = tested on: IGROV1 ovarian
# ACHN renal = tested on: ACHN renal
# K-562 leukemia = tested on: K-562 leukemia
# M14 melanoma = tested on: M14 melanoma
# MALME-3M melanoma = tested on: MALME-3M melanoma
# NCI-H522 lung = tested on: NCI-H522 lung
# COLO 205 colon = tested on: COLO 205 colon
# HT29 colon = tested on: HT29 colon
# SF-539 CNS = tested on: SF-539 CNS
# SK-MEL-2 melanoma = tested on: SK-MEL-2 melanoma
Compound,TGI (IGROV1 ovarian) [µM],TGI (ACHN renal) [µM],TGI (K-562 leukemia) [µM],TGI (M14 melanoma) [µM],TGI (MALME-3M melanoma) [µM],TGI (NCI-H522 lung) [µM],TGI (COLO 205 colon) [µM],TGI (HT29 colon) [µM],TGI (SF-539 CNS) [µM],TGI (SK-MEL-2 melanoma) [µM],GI50 (IGROV1 ovarian) [µM],GI50 (ACHN renal) [µM],GI50 (K-562 leukemia) [µM],GI50 (M14 melanoma) [µM],GI50 (MALME-3M melanoma) [µM],GI50 (NCI-H522 lung) [µM],GI50 (COLO 205 colon) [µM],GI50 (HT29 colon) [µM],GI50 (SF-539 CNS) [µM],GI50 (SK-MEL-2 melanoma) [µM]
N/C(=N\N=C=C1C(=O)Nc2ccc(F)cc21)NO,> 100,> 100,> 100,> 100,> 100,> 100,> 100,> 100,> 100,> 100,,,,,,,,,,
COC1C2c3ccccc3C(C#N)(Cc3ccc4c(c32)OCO4)N1C(=O)c1ccccc1 (configuration not stated),> 100,> 100,> 100,> 100,> 100,> 100,82.6,> 100,> 100,> 100,,,,,,,,,,
CCOc1ccc(NC(=O)/C(=C/c2ccccc2)C(C)=O)cc1,29.1,35.3,41.4,26,31.6,7.66,33.1,33.3,23.3,26.4,,,,,,,,,,
c1ccc(COc2ccc(Nc3ncnc4ccc(-c5ccco5)cc34)cc2)cc1,> 23.1,> 25,> 25,19.9,> 21.1,15.1,17.7,16.1,> 25,24.6,7.11,6.75,9.74,7.31,6.04,4.84,7.14,4.52,8.83,9.68
COc1ccc(C(=O)Nc2ccccc2C#N)cc1,> 100,> 100,> 100,,> 100,,> 100,> 100,> 100,> 100,,,,,,,,,,
Fc1cccc(C=NC23CC4CC(CC(C4)C2)C3)c1,> 100,> 100,> 100,> 100,> 100,> 100,> 100,> 100,> 100,> 100,,,,,,,,,,
Cc1nc(N=C(N)N)nc2ccc3ccccc3c12,7.87,5.15,6.13,3.43,,2.5,3.13,4.96,2.98,3.37,1.53,1.79,1.43,1.59,,1.04,1.13,1.95,1.39,1.72
CC(=O)[CH-]C(=O)c1ccccc1.CC(=O)[CH-]C(=O)c1ccccc1.[O-]Cc1cccs1.[O-]Cc1cccs1.[Ti+4],> 100,> 100,> 100,> 100,> 100,> 100,,46.6,> 100,> 100,89.9,> 100,31.2,21.6,> 100,54.2,,17.5,71.2,> 100
C=C1C(=O)C23C(O)C1CCC2C12CO[C@]3(O)[C@@H](O)C1C(C)(C)CCC2O (some centres not stated),20.3,27.2,> 100,24.1,17.5,2.15,7.87,30.3,28.2,30.2,,,,,,,,,,
COc1ccccc1NS(=O)(=O)c1cc(C(C)(C)C)ccc1OCCOc1ccc(C(C)(C)C)cc1S(=O)(=O)Nc1ccccc1OC,> 100,> 100,> 100,> 100,> 100,,> 100,> 100,> 100,> 100,,,,,,,,,,
S=c1nc(/C=C/c2ccc(Cl)c(Cl)c2)[nH][nH]1,> 100,> 100,> 100,> 100,> 100,> 100,,> 100,> 100,> 100,,,,94.7,,,,,,
COc1ccc2c(c1)C(=O)/C(=C/c1ccc(OCC(=O)c3ccc(Cl)cc3)cc1)O2,35.3,30.5,4.64,,42.3,15.7,18,40.7,34.8,99.9,11.1,15.9,1.77,,20,3.77,4.64,20.1,17.9,26.7
CCOC(=O)c1c(-c2ccccc2)[nH]c2ccccc2c1=O,> 100,> 100,> 100,> 100,> 100,,> 100,> 100,,,,,,,,,,,,
O=c1[nH]cnc2c1nnn2C1C=C(CO)C(O)C1O (configuration not stated),> 100,> 100,> 100,> 100,,,> 100,> 100,> 100,> 100,,,,,,,,,,
Cc1cc2c(C)nn(Cc3ccc(Cl)cc3Cl)c2c(C#N)c1C,> 100,> 100,,,> 100,,,> 100,> 100,> 100,,,,,,,,,,
COc1cc(-c2[nH]ncc2CCCC(=O)Nc2ccccc2[N+](=O)[O-])ccc1O,> 100,> 100,> 100,> 100,48.9,> 100,> 100,> 100,> 100,,,,,,,,,,,
CCOC(=O)C12CN(C34CC5CC(CC(C5)C3)C4)CC(C(=O)OCC)(C1=O)C(c1ccccc1)OC2c1ccccc1 (configuration not stated),> 100,> 100,> 100,> 100,> 100,,> 100,> 100,,> 100,,,,,,,,,,
COc1ccc(Nc2nc3c(N)cc(C(F)(F)F)cc3nc2-c2ccccc2)cc1,> 100,> 100,> 100,> 100,> 100,> 100,> 100,,> 100,> 100,,,,,,,,,,
COc1ccc2c(c1)CC[C@@H]1C2CC[C@]2(C)C(=O)N(C)C(=O)CC12 (some centres not stated),> 100,> 100,> 100,> 100,> 100,> 100,> 100,> 100,> 100,,,,,,,,,,,
